Like-named read-outs stand apart in the source and are kept apart here.
What was measured:
[1] = tested on: HECA-452 epitopes on PSGL-1; test: Western blot of HECA-452 epitopes on PSGL-1 of CLA+ T-cells; type: cell-based, human
Method: For analysis of CLA expression on T-cells treated with glycoconjugate modifiers, CLA^+ T-cells were first pretreated with neuraminidase (0.1 U/ml at 37° C. for 1 h) to eliminate functional CLA and cleave all HECA-452 reactive epitopes from the cell surface (35–38). Since we wanted to investigate whether these compounds directly affected CLA expression and function, neuraminidase pretreatment followed by incubations with glycosylation modifiers allowed for examination of de novo synthesized CLA/HECA-452 epitopes re-expressed on the cell surface. After neuraminidase digestion, cells were then incubated with tunicamycin (0.02 mM) (an inhibitor of GlcNAc phosphotransferase, the initial step of N-glycosylation), swainsonine (0.23 mM) (an inhibitor of α-mannosidase II and complex-type N-glycosylation), 4-F-GlcNAc (0.05 mM) (putative inhibitor of poly-N-acetyllactosamine biosynthesis), BAG (an inhibitor of O-glycan biosynthesis) (<2 mM) or GlcNAc (5 mM) (negative control, naturally-occurring metabolic counterpart of 4-F-GlcNAc)for 30 h in the presence of human recombinant IL-2. […] Concentrations for BAG were selected based on maximal O-glycosylation inhibitory effects at non-growth inhibitory concentrations as previously reported (39). To determine a suitable concentration of 4-F-GlcNAc for examining glycoconjugate-modifying effects without influencing cell growth or protein synthesis, we performed preliminary growth inhibitory experiments of cells incubated with 4-F-GlcNAc for 2 cell doublings (˜36 h) at 37° C. (cell viability assessed by Trypan-blue exclusion).
For lysate preparation, cells (including radiolabeled cells) were washed 3× in ice cold PBS and lysed in buffer containing 150 mM NaCl, 50 mM Tris-HCl pH 7.4, 1 mM EDTA, 0.02% NaAzide, 20 μg/ml PMSF, Complete™ protease inhibitors cocktail tablets (Roche Molecular Biochemicals) and 2% NP-40 (250 μl/10^8 cells). Following 2 h incubation on ice, insoluble cellular debris was pelleted by centrifugation for 30 min at 10,000×g at 4° C. and solubilized protein lysate was collected and quantified by Bradford protein assay (Sigma Chemical). SDS was added to a final concentration of 1% in lysate preparations utilized for immunoprecipitation experiments.
For SDS-PAGE and Western blotting, cell lysates, membrane proteins or immunoprecipitates were diluted and boiled in reducing sample buffer, and separated on 7–9% SDS-PAGE gels. Resolved protein was transferred to Sequi-blot™ PVDF membrane (Bio-Rad, Inc., Hercules, Calif.) and blocked with FBS for 1 hr at RT. Blots were incubated with rat IgM anti-human CLA HECA-452 (1 μg/ml), mouse IgG anti-human PSGL-1 moAbs PL-2 (1 μg/ml), 203, 4F9 and 4D8 (1 μg each/ml), or mouse IgG anti-human CD43 L60 (1 μg/ml) for 1 hr at RT. Isotype control immunoblots using either rat IgM or mouse IgG were performed in parallel to evaluate non-specific reactive proteins. After three washes with PBS/0.1%Tween-20 (10 min/wash), blots were incubated with the respective secondary Ab, AP-conjugated goat anti-rat IgM (1:400) or goat anti-mouse IgG (1:8000). AP substrate, Western Blue® (Promega, Madison, Wis.) was then added to develop blots.
Cells were then re-cultured in the presence of glycosylation inhibitor, diluent control (PBS) or molecular control (GlcNAc) for 30 hr and then harvested for CLA expression and functional analysis. […] To assess the duration of anti-carbohydrate effects on HECA-452 expression on PSGL-1, cells treated with 4-F-GlcNAc for 30 h and were then re-cultured in non-4-F-GlcNAc-containing medium for 72 h.

[2] = tested on: α-mannose (ConA staining); type: cell-based, human; conditions: compared with PBS or GlcNAc treatments
Method: For lectin blotting, cell lysates (25 μg/spot) were spotted onto methanol-permeabilized PVDF membrane and blocked in FBS for 1 h at RT. Blots were then probed with AP-Canavalia ensiformis agglutinin (ConA) (2.0 μg/ml PBS; specificity: α-mannose), AP-Triticum vulgaris (Wheat germ) agglutinin (WGA) (0.5 μg/ml PBS; specificity: terminal GlcNAc or GlcNAcβ1,4GlcNAc) or AP-Lycopersicon esculentum (tomato lectin) agglutinin (LEA) (1.0 μg/ml PBS; specificity: (Galβ1,4GlcNAc)n) for 1 h at RT (All lectins from EY Labs., Inc., San Mateo, Calif.). After washing 3× in PBS/0.1% Tween-20 and 1× in PBS (10 min each), blots were developed with Western Blue®.
To analyze and identify the glycan modifications on CLA^+ T-cells treated with 4-F-GlcNAc, lectin blotting experiments were performed with ConA (Specificity: α-mannose), WGA (Specificity: terminal GlcNAc or GlcNAcβ1,4GlcNAc) and LEA (Specificity: {Galβ1,4GlcNAc}n).

[3] = 30 h after neuraminidase, tunicamycin 0.02 mM, swainsonine 0.23 mM, 4-F-GlcNAc 0.05 mM, BAG 2.0 mM, GlcNAc 5.0 mM

| Compound | potency at lowering HECA-452 expression relative to BAG, on a molar basis [1] | de novo synthesized HECA-452 epitopes on PSGL-1 (Western blot) [1, 3] | duration of suppression of HECA-452 expression on PSGL-1 after removal of drug ([1]; treated for 30 h then re-cultured in non-4-F-GlcNAc-containing medium for 72 h) | ConA staining of lysates [2] | de novo synthesized HECA-452 epitopes on PSGL-1 (Western blot) [1] | potency at lowering HECA-452 expression relative to 4-F-GlcNAc, on a molar basis [1] | effects on HECA-452 expression ([1]; below 0.015 mM, preliminary, data not shown) |
| --- | --- | --- | --- | --- | --- | --- | --- |
| CC(=O)N[C@H]1C(OC(C)=O)O[C@H](COC(C)=O)[C@@H](F)[C@@H]1OC(C)=O (stereo partly drawn) [4-F-GlcNAc, 2-acetamido-2-deoxy-1,3,6-tri-O-acetyl-4-deoxy-4-fluoro-D-glucopyranose] | more potent than BAG | marked reduction | 48 h | no effect | – | – | – |
| CC(=O)N[C@H]1C(O)O[C@H](CO)[C@@H](O)[C@@H]1O (some centres unmarked) [GlcNAc, N-acetylglucosamine] | – | not affected | – | – | – | – | – |
| O[C@H]1[C@H]2[C@H](O)CCCN2C[C@H]1O [swainsonine] | – | – | – | enhanced | not affected | – | – |
| tunicamycin | – | – | – | eliminated | marked reduction | 2.5 fold | minimal effects |
